Our source for the IC50 and DC50 values is patent US20230117034A1, “PYRAZOLOTRIAZINES” (Bayer Aktiengesellschaft, priority 2019, published 2023).

One test concerns the target T1, CDK9/CycT1 (Homo sapiens, UniProt P50750).
T1 construct: Recombinant full-length His-tagged human CDK9 and CycT1; purchased Life Technologies PV4131; host or cells: insect cells
The experiment in a line: CDK9/CycT1 high ATP kinase assay (TR-FRET, 2 mM ATP). The format is biochemical. Particulars: 2 mM ATP (high ATP); median; read-out: CDK9/CyclinT1, 2 mM ATP (high ATP), IC50 (median). An outline of the steps: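 Full-length His-tagged human CDK9/CycT1 (insect cell, ~0.5 μg/mL) preincubated 15 min at 22 °C with compound in Tris pH 8.0, MgCl2, DTT buffer before reaction with biotinylated peptide substrate at high ATP (2 mM).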

The target in test [1] is T2, CYCLIN K (nuclear staining in CAL-120 cells) (Homo sapiens, UniProt O75909).
T2 construct: endogenous in cells; host or cells: CAL-120 human breast cancer cells (DSMZ ACC 459)
T2 sequence (O75909 whole entry): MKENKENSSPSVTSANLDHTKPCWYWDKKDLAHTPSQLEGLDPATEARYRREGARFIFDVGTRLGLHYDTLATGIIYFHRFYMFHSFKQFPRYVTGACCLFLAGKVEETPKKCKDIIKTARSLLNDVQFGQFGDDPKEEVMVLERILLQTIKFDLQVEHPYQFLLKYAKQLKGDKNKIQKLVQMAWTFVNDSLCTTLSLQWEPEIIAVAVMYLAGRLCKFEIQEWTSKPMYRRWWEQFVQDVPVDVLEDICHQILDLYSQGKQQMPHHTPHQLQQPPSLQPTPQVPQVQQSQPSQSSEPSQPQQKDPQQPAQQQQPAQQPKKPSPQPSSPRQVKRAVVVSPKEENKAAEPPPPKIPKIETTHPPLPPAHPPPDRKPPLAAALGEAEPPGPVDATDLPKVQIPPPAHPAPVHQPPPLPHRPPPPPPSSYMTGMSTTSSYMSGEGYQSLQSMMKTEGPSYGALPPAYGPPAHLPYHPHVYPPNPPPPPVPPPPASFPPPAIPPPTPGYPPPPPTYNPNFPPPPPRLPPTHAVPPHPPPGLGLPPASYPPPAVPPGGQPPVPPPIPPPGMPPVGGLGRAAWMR
T2 sequence (Q9NYV4 whole entry partner): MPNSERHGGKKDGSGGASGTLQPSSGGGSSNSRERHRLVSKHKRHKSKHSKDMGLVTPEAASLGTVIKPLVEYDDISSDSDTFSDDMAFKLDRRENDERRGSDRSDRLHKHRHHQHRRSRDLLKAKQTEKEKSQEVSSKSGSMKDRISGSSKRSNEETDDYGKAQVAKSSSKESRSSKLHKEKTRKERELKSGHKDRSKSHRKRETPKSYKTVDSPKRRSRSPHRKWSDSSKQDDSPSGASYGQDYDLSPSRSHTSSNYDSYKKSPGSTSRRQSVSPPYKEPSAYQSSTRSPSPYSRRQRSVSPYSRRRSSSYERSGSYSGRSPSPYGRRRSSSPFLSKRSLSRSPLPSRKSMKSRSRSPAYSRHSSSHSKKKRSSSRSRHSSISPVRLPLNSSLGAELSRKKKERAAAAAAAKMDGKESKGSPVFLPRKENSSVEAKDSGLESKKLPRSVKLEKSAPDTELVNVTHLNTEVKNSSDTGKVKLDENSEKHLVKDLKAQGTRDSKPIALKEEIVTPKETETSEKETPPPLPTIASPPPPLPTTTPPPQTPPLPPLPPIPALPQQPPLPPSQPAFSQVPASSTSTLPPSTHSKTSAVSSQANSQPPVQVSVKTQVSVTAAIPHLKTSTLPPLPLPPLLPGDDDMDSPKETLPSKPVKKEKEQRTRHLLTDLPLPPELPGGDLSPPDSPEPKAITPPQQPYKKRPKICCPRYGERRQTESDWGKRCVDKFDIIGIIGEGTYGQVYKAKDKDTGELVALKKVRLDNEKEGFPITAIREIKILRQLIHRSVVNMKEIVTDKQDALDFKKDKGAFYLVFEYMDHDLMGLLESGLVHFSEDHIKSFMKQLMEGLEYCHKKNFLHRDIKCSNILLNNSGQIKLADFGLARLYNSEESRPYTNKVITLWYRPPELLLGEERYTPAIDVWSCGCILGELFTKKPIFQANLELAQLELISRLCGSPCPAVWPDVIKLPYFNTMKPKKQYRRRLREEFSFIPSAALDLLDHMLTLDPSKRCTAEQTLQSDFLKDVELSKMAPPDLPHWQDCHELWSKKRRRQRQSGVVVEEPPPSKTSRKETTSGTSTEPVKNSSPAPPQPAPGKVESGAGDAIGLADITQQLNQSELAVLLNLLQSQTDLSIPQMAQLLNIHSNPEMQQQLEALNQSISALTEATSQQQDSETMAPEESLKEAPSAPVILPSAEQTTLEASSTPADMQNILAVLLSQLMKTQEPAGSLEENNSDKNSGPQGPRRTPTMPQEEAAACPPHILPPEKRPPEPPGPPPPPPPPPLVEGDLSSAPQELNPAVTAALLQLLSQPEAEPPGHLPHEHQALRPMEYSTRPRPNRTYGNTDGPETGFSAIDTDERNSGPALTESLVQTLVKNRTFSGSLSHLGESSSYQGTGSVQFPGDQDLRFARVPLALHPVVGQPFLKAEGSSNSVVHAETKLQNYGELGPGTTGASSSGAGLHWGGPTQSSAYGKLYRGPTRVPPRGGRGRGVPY
Put plainly: CYCLIN K nuclear protein level: immunofluorescence high content analysis (CAL-120). The format is cell-based. Particulars: 24 h, 50% reduction of nuclear CCNK staining intensity, median, read-out: CYCLIN K degradation IF, DC50-[mol/l] (median). An outline of the steps: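 CAL-120 breast cancer cells treated in dose-response for 24 h at 37 °C, PFA-fixed and immunostained for cyclin K with Hoechst counterstain. Confocal imaging quantified nuclear intensity; DC50 is the concentration giving 50% reduction of nuclear CCNK staining, normalized to DMSO and control.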

The test system of test [2] is CAL-120, human breast adenocarcinoma cells. Put plainly: Proliferation assay CAL-120 (crystal violet, 4 days). The format is cell-based. As to conditions: CAL-120 cells, median, read-out: Prolif-CAL-120, IC50-[mol/l] (median). An outline of the steps:
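CAL-120 or MDA-MB-231 cells grown 24 h, then exposed 4 days to compound (0.01–10 micromol/L, 0.1% DMSO). Crystal violet staining, absorbance at 595 nm, normalised to a zero-point plate (0%) and untreated cells (100%); IC50 by 4-parameter fit.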

pIC50: −log10 of the molar value. Where two headings read alike, the source gives them in different places.

T1 sequence (P50750 whole entry): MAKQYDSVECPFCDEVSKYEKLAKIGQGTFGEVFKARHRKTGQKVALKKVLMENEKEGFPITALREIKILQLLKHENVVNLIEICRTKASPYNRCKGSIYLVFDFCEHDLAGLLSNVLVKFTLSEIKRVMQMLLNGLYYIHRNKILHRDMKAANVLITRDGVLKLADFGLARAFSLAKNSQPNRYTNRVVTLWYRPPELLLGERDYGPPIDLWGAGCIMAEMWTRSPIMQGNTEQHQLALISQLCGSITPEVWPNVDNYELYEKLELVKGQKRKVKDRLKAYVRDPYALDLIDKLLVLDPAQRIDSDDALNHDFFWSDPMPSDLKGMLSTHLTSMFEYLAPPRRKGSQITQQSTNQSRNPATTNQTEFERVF
T1 sequence (O60563 whole entry partner): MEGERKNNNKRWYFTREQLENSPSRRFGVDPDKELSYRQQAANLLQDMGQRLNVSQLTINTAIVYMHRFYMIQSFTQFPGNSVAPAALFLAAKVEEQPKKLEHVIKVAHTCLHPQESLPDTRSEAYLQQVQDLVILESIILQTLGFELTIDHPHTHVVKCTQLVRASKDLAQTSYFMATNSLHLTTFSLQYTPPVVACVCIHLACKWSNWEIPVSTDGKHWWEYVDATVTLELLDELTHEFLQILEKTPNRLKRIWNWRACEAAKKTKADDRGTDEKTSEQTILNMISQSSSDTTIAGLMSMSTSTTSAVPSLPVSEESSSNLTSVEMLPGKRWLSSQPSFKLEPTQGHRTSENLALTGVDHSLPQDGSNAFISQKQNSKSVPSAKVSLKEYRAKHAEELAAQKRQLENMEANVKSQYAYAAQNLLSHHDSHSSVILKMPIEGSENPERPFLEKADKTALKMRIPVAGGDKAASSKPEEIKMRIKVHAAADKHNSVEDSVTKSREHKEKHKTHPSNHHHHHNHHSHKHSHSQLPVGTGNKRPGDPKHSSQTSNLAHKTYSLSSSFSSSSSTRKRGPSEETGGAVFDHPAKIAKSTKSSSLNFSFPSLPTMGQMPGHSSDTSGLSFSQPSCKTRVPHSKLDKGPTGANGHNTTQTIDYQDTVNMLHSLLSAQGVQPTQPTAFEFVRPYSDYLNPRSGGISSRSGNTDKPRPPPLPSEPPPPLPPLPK

As to `Fc1c(Cl)ccc2[nH]c(CNc3nc(N4CC5CCC(C4)N5)nc4c(C5CC5)cnn34)nc12` [Example 379, N-[(5-chloro-4-fluoro-1H-benzimidazol-2-yl)methyl]-8-cyclopropyl-2-(3,8-diazabicyclo[3.2.1]octan-3-yl)pyrazolo[1,5-a][1,3,5]triazin-4-amine], the pIC50 is 4.95 at CDK9/CycT1 and 8.77 in test [2] (Homo sapiens, CAL-120, 96 h). The DC50 in test [1] was 0.404 nM.

For `Cc1cc2nc(CNc3nc(N(C)CC(C)(C)O)nc4c(C5CC5)cnn34)[nH]c2cc1C` [Example 321, 1-[(8-cyclopropyl-4-{[(5,6-dimethyl-1H-benzimidazol-2-yl)methyl]amino}pyrazolo[1,5-a][1,3,5]triazin-2-yl)(methyl)amino]-2-methylpropan-2-ol], the pIC50 at CDK9/CycT1 is 5.14; in test [2] (Homo sapiens, CAL-120, 96 h), 8.63. In addition, in test [1], the DC50 was 1.36 nM.

With `Cc1[nH]c(CNc2nc(N3CCOCC3)nc3c(Br)cnn23)nc1-c1ccccc1` [Example 27, 8-bromo-N-[(5-methyl-4-phenyl-1H-imidazol-2-yl)methyl]-2-(morpholin-4-yl)pyrazolo[1,5-a][1,3,5]triazin-4-amine], the pIC50 at CDK9/CycT1 was 4.83. Moreover, the DC50 in test [1] amounted to 66.3 nM.

Turning to `Fc1cc2nc(CNc3nc(N4CC5CCC(C4)N5)nc4c(C5CC5)cnn34)[nH]c2cc1F` [Example 325, 8-cyclopropyl-2-(3,8-diazabicyclo[3.2.1]octan-3-yl)-N-[(5,6-difluoro-1H-benzimidazol-2-yl)methyl]pyrazolo[1,5-a][1,5]triazin-4-amine], the pIC50 is below 4.70 on CDK9/CycT1 and 8.83 in test [2] (Homo sapiens, CAL-120, 96 h). The DC50 in test [1] stood at 0.53 nM.

As for `Fc1c(Cl)ccc2[nH]c(CNc3nc(N4CCOCC4)nc4c(C5CC5)cnn34)nc12` [Example 370, N-[(5-chloro-4-fluoro-1H-benzimidazol-2-yl)methyl]-8-cyclopropyl-2-(morpholin-4-yl)pyrazolo[1,5-a][1,3,5]triazin-4-amine], the pIC50 at CDK9/CycT1 was below 4.70; in test [2] (Homo sapiens, CAL-120, 96 h), 8.44. In addition, the DC50 in test [1] was found to be 0.258 nM.

Turning to `CN1C2CCC1CN(c1nc(NCc3nc4c(F)cccc4[nH]3)n3ncc(C(F)(F)F)c3n1)C2` [Example 384, N-[(4-fluoro-1H-benzimidazol-2-yl)methyl]-2-(8-methyl-3,8-diazabicyclo[3.2.1]octan-3-yl)-8-(trifluoromethyl)pyrazolo[1,5-a][1,3,5]triazin-4-amine], the pIC50 is below 4.70 at CDK9/CycT1 and 8.46 in test [2] (Homo sapiens, CAL-120, 96 h). For the same compound, the DC50 in test [1] amounted to 0.662 nM.

Take `CN(CC(C)(C)O)c1nc(NCc2nc3c(F)c(Cl)ccc3[nH]2)n2ncc(Br)c2n1` [Example 374, 1-[(8-bromo-4-{[(5-chloro-4-fluoro-1H-benzimidazol-2-yl)methyl]amino}pyrazolo[1,5-a][1,3,5]triazin-2-yl)(methyl)amino]-2-methylpropan-2-ol]: the pIC50 on CDK9/CycT1 was 5.79; in test [2] (Homo sapiens, CAL-120, 96 h), 8.55. The DC50 in test [1] was 0.345 nM.

Consider `Fc1c(Cl)ccc2[nH]c(CNc3nc(N4CC5CCC(C4)N5)nc4c(Br)cnn34)nc12` [Example 380, 8-bromo-N-[(5-chloro-4-fluoro-1H-benzimidazol-2-yl)methyl]-2-(3,8-diazabicyclo[3.2.1]octan-3-yl)pyrazolo[1,5-a][1,3,5]triazin-4-amine], for which the pIC50 at CDK9/CycT1 was 5.23; in test [2] (Homo sapiens, CAL-120, 96 h) it was 8.76. Also, the DC50 in test [1] amounted to 0.22 nM.

In the case of `Clc1cc2nc(CNc3nc(N4CC5CCC(C4)N5)nc4c(Br)cnn34)[nH]c2cc1Cl` [Example 334, 8-bromo-2-(3,8-diazabicyclo[3.2.1]octan-3-yl)-N-[(5,6-dichloro-1H-benzimidazol-2-yl)methyl]pyrazolo[1,5-a][1,3,5]triazin-4-amine], the pIC50 on CDK9/CycT1 is 5.09; in test [2] (Homo sapiens, CAL-120, 96 h), 8.76. The DC50 in test [1] was 2.06 nM.

As to `FC(F)(F)c1ccc2[nH]c(CNc3nc(N4CC5CCC(C4)N5)nc4c(C5CC5)cnn34)nc2c1` [Example 327, 8-cyclopropyl-2-(3,8-diazabicyclo[3.2.1]octan-3-yl)-N-{[5-(trifluoromethyl)-1H-benzimidazol-2-yl]methyl}pyrazolo[1,5-a][1,3,5]triazin-4-amine], the pIC50 at CDK9/CycT1 is below 4.70; in test [2] (Homo sapiens, CAL-120, 96 h), 8.64. Also, the DC50 in test [1] is 0.493 nM.

With `Cc1cc2nc(CNc3nc(N4CC5CCC(C4)N5)nc4c(Br)cnn34)[nH]c2cc1C` [Example 353, 8-bromo-2-(3,8-diazabicyclo[3.2.1]octan-3-yl)-N-[(5,6-dimethyl-1H-benzimidazol-2-yl)methyl]pyrazolo[1,5-a][1,3,5]triazin-4-amine], the pIC50 at CDK9/CycT1 is 4.90; in test [2] (Homo sapiens, CAL-120, 96 h), 8.85. Also, the DC50 in test [1] was found to be 0.644 nM.

`Fc1cc2nc(CNc3nc(N4CCOCC4)nc4c(Br)cnn34)[nH]c2cc1Cl` [Example 336, 8-bromo-N-[(6-chloro-5-fluoro-1H-benzimidazol-2-yl)methyl]-2-(morpholin-4-yl)pyrazolo[1,5-a][1,3,5]triazin-4-amine]: the DC50 in test [1] worked out at 0.52 nM. Also, the pIC50 in test [2] (Homo sapiens, CAL-120, 96 h) was 8.49.

As for `Fc1cc2nc(CNc3nc(N4CCOCC4)nc4c(C(F)(F)F)cnn34)[nH]c2cc1F` [Example 333, N-[(5,6-difluoro-1H-benzimidazol-2-yl)methyl]-2-(morpholin-4-yl)-8-(trifluoromethyl)pyrazolo[1,5-a][1,3,5]triazin-4-amine], the pIC50 was below 4.70 on CDK9/CycT1 and 8.51 in test [2] (Homo sapiens, CAL-120, 96 h). In addition, in test [1], the DC50 was found to be 0.113 nM.

With `CN(CC(C)(C)O)c1nc(NCc2nc3cc(F)c(F)cc3[nH]2)n2ncc(C3CC3)c2n1` [Example 319, 1-[(8-cyclopropyl-4-{[(5,6-difluoro-1H-benzimidazol-2-yl)methyl]amino}pyrazolo[1,5-a][1,3,5]triazin-2-yl)(methyl)amino]-2-methylpropan-2-ol], the pIC50 was below 4.70 on CDK9/CycT1 and 8.54 in test [2] (Homo sapiens, CAL-120, 96 h). In addition, the DC50 in test [1] is 0.492 nM.

Consider `Cc1cc2nc(CNc3nc(N(C)CC(C)(C)O)nc4c(Br)cnn34)[nH]c2cc1C` [Example 343, 1-[(8-bromo-4-{[(5,6-dimethyl-1H-benzimidazol-2-yl)methyl]amino}pyrazolo[1,5-a][1,3,5]triazin-2-yl)(methyl)amino]-2-methylpropan-2-ol], for which the pIC50 on CDK9/CycT1 is 5.37; in test [2] (Homo sapiens, CAL-120, 96 h) it was 8.74. Moreover, the DC50 in test [1] was determined as 0.0978 nM.

`CN1CCN(c2nc(NCc3nc4cc(Cl)c(Cl)cc4[nH]3)n3ncc(Br)c3n2)CC1` [Example 330, 8-bromo-N-[(5,6-dichloro-1H-benzimidazol-2-yl)methyl]-2-(4-methylpiperazin-1-yl)pyrazolo[1,5-a][1,3,5]triazin-4-amine]: the pIC50 on CDK9/CycT1 is below 4.70; in test [2] (Homo sapiens, CAL-120, 96 h), 8.61. Further, the DC50 in test [1] was found to be 0.16 nM.

As for `Brc1cnn2c(NCc3nc4ccccc4[nH]3)nc(N3CC4CCC(C3)O4)nc12` [Example 351, N-[(1H-benzimidazol-2-yl)methyl]-8-bromo-2-(8-oxa-3-azabicyclo[3.2.1]octan-3-yl)pyrazolo[1,5-a][1,3,5]triazin-4-amine], the pIC50 at CDK9/CycT1 is below 4.70; in test [2] (Homo sapiens, CAL-120, 96 h), 7.42.

For the compound `Fc1ccc2[nH]c(CNc3nc(N4CC5CCC(C4)N5)nc4c(Cl)cnn34)nc2c1F.O=CO` [Example 360, formic acid 8-chloro-2-(3,8-diazabicyclo[3.2.1]octan-3-yl)-N-[(4,5-difluoro-1H-benzimidazol-2-yl)methyl]pyrazolo[1,5-a][1,3,5]triazin-4-amine], the DC50 in test [1] stood at 0.709 nM. The pIC50 in test [2] (Homo sapiens, CAL-120, 96 h) was 8.65.

Consider `Brc1cnn2c(NCc3nc4ccccc4[nH]3)nc(N3C[C@H]4CC[C@@H]3CN4)nc12` (single isomer, unassigned) [Example 335, N-[(1H-benzimidazol-2-yl)methyl]-8-bromo-2-{[1R or S-(1R*,4R*)]-2,5-diazabicyclo[2.2.2]octan-2-yl}pyrazolo[1,5-a][1,3,5]triazin-4-amine], for which the pIC50 at CDK9/CycT1 was below 4.70; in test [2], 8.37.

Turning to `Brc1cnn2c(NCc3nc4ccccc4[nH]3)nc(N3CCN4CCC3C4)nc12` (stereo not shown) [Example 350, N-[(1H-benzimidazol-2-yl)methyl]-8-bromo-2-(1,4-diazabicyclo[3.2.1]octan-4-yl)pyrazolo[1,5-a][1,3,5]triazin-4-amine], the pIC50 at CDK9/CycT1 was below 4.70; in test [2] (Homo sapiens, CAL-120, 96 h) it was 8.36.

As for `CC(C)c1cnn2c(NCc3ncc(-c4ccccc4)[nH]3)nc(N3CCOCC3)nc12` [Example 30, 2-(morpholin-4-yl)-N-[(5-phenyl-1H-imidazol-2-yl)methyl]-8-(propan-2-yl)pyrazolo[1,5-a][1,3,5]triazin-4-amine], at CDK9/CycT1, the pIC50 is below 4.70. In addition, the DC50 in test [1] amounted to 4.1 nM.

Regarding `CN1CCN(c2nc(NCc3nc4c(OC(F)(F)F)cccc4[nH]3)n3ncc(Br)c3n2)CC1` [Example 376, 8-bromo-2-(4-methylpiperazin-1-yl)-N-{[4-(trifluoromethoxy)-1H-benzimidazol-2-yl]methyl}pyrazolo[1,5-a][1,3,5]triazin-4-amine], the pIC50 was below 4.70 at CDK9/CycT1 and 7.43 in test [2] (Homo sapiens, CAL-120, 96 h).
